Measured values published in patent publication US10442788B2, “Hepatitis B antiviral agents” (ENANTA PHARMACEUTICALS, INC., priority 2015, dated 2019).

system: HBV; experiment: HepAD38 antiviral assay: reduction of viral product accumulation (virion DNA by qPCR, HBsAg or HBeAg by ELISA); format: cell-based; conditions: Hepatitis B virus, 120 h; HepAD38 cells, five days after compound addition; 50% reduction of viral product accumulation relative to no drug controls; read-out: HepAD38 EC50
Experimental: Methods: HepAD38 cells are maintained as previously reported (Ladner et al, Antimicrob. Agents Chemother. 1997, […], 1715). Briefly, cells are passaged upon attaining confluency in DMEM/F12 media in the presence of 10% FBS, Penn/Strep, 250 μg/mL G418, and 1 ug/ml tetracycline. Novel compounds are screened by first washing cells three times with PBS to remove tetracycline, and plating in 96 well plates at 35,000 cells/well. Compounds dissolved in DMSO are then diluted 1:200 into wells containing cells. Five days after compound addition, material is harvested for analysis. For an extended 8 day analysis, cells are plated and treated as described above, but media and compound are refreshed on d2 and d5 post initial treatment.
On harvest day, virion DNA is obtained by lysing with Sidestep Lysis and Stabilization Buffer and then quantified via quantitative real time PCR. Commercially available ELISA kits are used to quantitate the viral proteins HBsAg (Alpco) or HbeAg (US Biological) by following the manufacturer's recommended protocol after diluting samples to match the linear range of their respective assays. Irrespective of readout, compound concentrations that reduce viral product accumulation in the cell lysates or supernatants by 50% relative to no drug controls (EC50) are reported; EC50 ranges are as follows: A<1 μM; B 1-10 μM; C>10 μM.

`O=S(=O)(c1cc(-c2nc(-c3ccc(Cl)c(C4CC4)c3)c[nH]2)ccc1Cl)N1CCC(O)CC1` [Example 17] and `O=S(=O)(c1cc(-c2nc(-c3ccc(C4CC4)c(Cl)c3)c[nH]2)ccc1Cl)N1CCC(O)CC1` [Example 157] cannot be ordered by EC50: under 1 µM for the first, under 1 µM for the second.

`O=S(=O)(c1cc(-c2nc(-c3ccc(Br)c(F)c3)c[nH]2)ccc1Cl)N1CC[C@@H](O)[C@@H](O)CC1` [Example 19] and `O=S(=O)(c1cc(-c2nc(-c3ccc(Br)c(F)c3)c[nH]2)ccc1Cl)N1CC[C@@H](O)[C@H](O)CC1` [Example 20] cannot be ordered by EC50: under 1 µM for the first, under 1 µM for the second.

`O=S(=O)(c1cc(-c2nc(-c3ccc(Br)c(F)c3)c[nH]2)ccc1Cl)N1C[C@@H](O)C[C@H]2C[C@H]2C1` [Example 34] and `O=S(=O)(c1cc(-c2nc(-c3ccc(Br)c(F)c3)c[nH]2)ccc1Cl)N1CC2COCC2C1` (stereo not shown) [Example 163] cannot be ordered by EC50: under 1 µM for the first, under 1 µM for the second.

First: O=S(=O)(c1cc(-c2nc(-c3cccs3)c[nH]2)ccc1Cl)N1CCC(O)CC1 [Example 70]
Second: O=S(=O)(c1cc(-c2nc(-c3nccs3)c[nH]2)ccc1Cl)N1CCC(O)CC1 [Example 81]
The EC50 of the first is lower: 1 to 10 µM for the first, over 10 µM for the second.

`O=S(=O)(c1cc(-c2nc(-c3ccccc3Br)c[nH]2)ccc1Cl)N1CCC(O)CC1` [Example 74] and `O=S(=O)(c1cc(-c2nc(-c3ccccc3Cl)c[nH]2)ccc1Cl)N1CCC(O)CC1` [Example 75] cannot be ordered by EC50: over 10 µM for the first, over 10 µM for the second.

Compared with `O=S(=O)(c1cc(-c2nc(-c3ccc4ocnc4c3)c[nH]2)ccc1Cl)N1CCC(O)CC1` [Example 76], `Cc1ccc(-c2c[nH]c(-c3ccc(Cl)c(S(=O)(=O)N4CCC(O)CC4)c3)n2)cc1` [Example 96] is lower in EC50: over 10 µM for the first, 1 to 10 µM for the second. The second is the more potent here.

First: COCCN(C)S(=O)(=O)c1cc(-c2ncc(-c3ccc(F)c(Br)c3)[nH]2)ccc1Cl [Example 77]
Second: COC(=O)NC[C@@H]1[C@H]2CN(S(=O)(=O)c3cc(-c4ncc(-c5ccc(F)c(Br)c5)[nH]4)ccc3Cl)C[C@@H]12 [Example 168]
The EC50 of the first is higher: over 10 µM for the first, under 1 µM for the second.

Compared with `O=S(=O)(c1cc(-c2nc(-c3cc(F)c(F)c(Cl)c3)c[nH]2)ccc1Cl)N1CCC(O)CC1` [Example 78], `O=S(=O)(c1cc(-c2nc(-c3cc(F)cc(F)c3)c[nH]2)ccc1Cl)N1CCC(O)CC1` [Example 86] is lower in EC50: over 10 µM for the first, 1 to 10 µM for the second.

First: O=S(=O)(c1cc(-c2nc(-c3cscn3)c[nH]2)ccc1Cl)N1CCC(O)CC1 [Example 80]
Second: O=S(=O)(c1cc(-c2nc(-c3ccccc3O)c[nH]2)ccc1Cl)N1CCC(O)CC1 [Example 159]
The EC50 of the first is higher: over 10 µM for the first, 1 to 10 µM for the second. The second is the more potent here.

Compared with `O=S(=O)(c1cc(-c2nc(-c3ccc(F)cc3F)c[nH]2)ccc1Cl)N1CCC(O)CC1` [Example 84], `O=S(=O)(c1cc(-c2nc(-c3cccc(F)c3F)c[nH]2)ccc1Cl)N1CCC(O)CC1` [Example 85] is higher in EC50: 1 to 10 µM for the first, over 10 µM for the second. The first is the more potent here.

`COc1ccccc1-c1c[nH]c(-c2ccc(Cl)c(S(=O)(=O)N3CCC(O)CC3)c2)n1` [Example 88] and `COc1ccc(-c2c[nH]c(-c3ccc(Cl)c(S(=O)(=O)N4CCC(O)CC4)c3)n2)cc1` [Example 98] fall in the same range of EC50: 1 to 10 µM for the first, 1 to 10 µM for the second.

Going from `N#Cc1ccc(-c2c[nH]c(-c3ccc(Cl)c(S(=O)(=O)N4CCC(O)CC4)c3)n2)cc1` [Example 97] to `O=S(=O)(c1cc(-c2nc(-c3ccc(C(F)(F)F)cc3)c[nH]2)ccc1Cl)N1CCC(O)CC1` [Example 99], the EC50 rises from under 1 µM to over 10 µM.

`CC(C)(C)CC(=O)NCCCNS(=O)(=O)c1cc(-c2nc(-c3ccc(Br)c(F)c3)c[nH]2)ccc1Cl` [Example 141] and `CC(C)(C)OC(=O)NCCCCNS(=O)(=O)c1cc(-c2nc(-c3ccc(Br)c(F)c3)c[nH]2)ccc1Cl` [Example 174] cannot be ordered by EC50: under 1 µM for the first, under 1 µM for the second.

`N#Cc1ccc(-c2c[nH]c(-c3ccc(Cl)c(S(=O)(=O)N4CCC(O)CC4)c3)n2)cc1Cl` [Example 149] and `N#Cc1ccc(-c2c[nH]c(-c3ccc(Cl)c(S(=O)(=O)N4CCC(O)CC4)c3)n2)cc1C1CC1` [Example 170] cannot be ordered by EC50: under 1 µM for the first, under 1 µM for the second.

`N#Cc1cc(-c2c[nH]c(-c3ccc(Cl)c(S(=O)(=O)N4CCC(O)CC4)c3)n2)ccc1C(F)(F)F` [Example 150] and `N#Cc1ccc(-c2c[nH]c(-c3ccc(Cl)c(S(=O)(=O)N4CCC(O)CC4)c3)n2)cc1C(F)(F)F` [Example 155] cannot be ordered by EC50: under 1 µM for the first, under 1 µM for the second.

`O=S(=O)(c1cc(-c2nc(-c3ccc(C(F)(F)F)c(Cl)c3)c[nH]2)ccc1Cl)N1CCC(O)CC1` [Example 151] and `O=S(=O)(c1cc(-c2nc(-c3ccc(Cl)c(C(F)(F)F)c3)c[nH]2)ccc1Cl)N1CCC(O)CC1` [Example 152] cannot be ordered by EC50: under 1 µM for the first, under 1 µM for the second.

`NS(=O)(=O)c1cc(-c2nc(-c3ccc(Br)c(F)c3)c[nH]2)ccc1Cl` [Example 153] and `COCC(C)NS(=O)(=O)c1cc(-c2nc(-c3ccc(Br)c(F)c3)c[nH]2)ccc1Cl` (stereo not shown) [Example 164] fall in the same range of EC50: 1 to 10 µM for the first, 1 to 10 µM for the second.

Compared with `N#Cc1cc(-c2c[nH]c(-c3ccc(Cl)c(S(=O)(=O)N4CCC(O)CC4)c3)n2)ccc1C1CC1` [Example 156], `O=S(=O)(c1cc(-c2nc(-c3ccc(C4CC4)c(C(F)(F)F)c3)c[nH]2)ccc1Cl)N1CCC(O)CC1` [Example 171] is lower in EC50: 1 to 10 µM for the first, under 1 µM for the second. The second is the more potent here.

First: CC(C)(C)c1ccc(-c2c[nH]c(-c3ccc(Cl)c(S(=O)(=O)N4CCC(O)CC4)c3)n2)cc1 [Example 158]
Second: CC(C)(C)c1cccc(-c2c[nH]c(-c3ccc(Cl)c(S(=O)(=O)N4CCC(O)CC4)c3)n2)c1 [Example 162]
The EC50 of the first is lower: under 1 µM for the first, 1 to 10 µM for the second. The first is the more potent here.

Compared with `C[C@H](N)C(=O)OC1CCN(S(=O)(=O)c2cc(-c3nc(-c4ccc(F)c(Br)c4)c[nH]3)ccc2Cl)CC1` [Example 160], `C[C@H](NC(=O)OC(C)(C)C)C(=O)OC1CCN(S(=O)(=O)c2cc(-c3nc(-c4ccc(F)c(Br)c4)c[nH]3)ccc2Cl)CC1` [Example 169] is lower in EC50: 1 to 10 µM for the first, under 1 µM for the second. The second is the more potent here.

Going from `O=S(=O)(c1cc(-c2nc(-c3ccc(C(F)(F)F)c(C4CC4)c3)c[nH]2)ccc1Cl)N1CCC(O)CC1` [Example 161] to `O=S(=O)(c1cc(-c2nc(-c3ccc(Br)c(F)c3)c(Cl)[nH]2)ccc1Cl)N1CCC(O)CC1` [Example 184], the EC50 rises from under 1 µM to over 10 µM.

`O=C(c1ccccc1)N1CCN(S(=O)(=O)c2cc(-c3nc(-c4ccc(Br)c(F)c4)c[nH]3)ccc2Cl)CC1` [Example 165] and `O=C(Nc1ccccc1)C1CCN(S(=O)(=O)c2cc(-c3nc(-c4ccc(Br)c(F)c4)c[nH]3)ccc2Cl)CC1` [Example 166] fall in the same range of EC50: 1 to 10 µM for the first, 1 to 10 µM for the second.

First: CC(C)(C)OC(=O)NC[C@@H]1[C@H]2CN(S(=O)(=O)c3cc(-c4ncc(-c5ccc(F)c(Br)c5)[nH]4)ccc3Cl)C[C@@H]12 [Example 167]
Second: CC(C)(C)OC(=O)NCC1CN(S(=O)(=O)c2cc(-c3ncc(-c4ccc(F)c(Br)c4)[nH]3)ccc2Cl)C1 [Example 182]
The EC50 of the first is higher: 1 to 10 µM for the first, under 1 µM for the second.

`COC(=O)NCCC(C)NS(=O)(=O)c1cc(-c2nc(-c3ccc(Br)c(F)c3)c[nH]2)ccc1Cl` (stereo not shown) [Example 172] and `COC(=O)NC(C)CCNS(=O)(=O)c1cc(-c2nc(-c3ccc(Br)c(F)c3)c[nH]2)ccc1Cl` (stereo not shown) [Example 188] cannot be ordered by EC50: under 1 µM for the first, under 1 µM for the second.

`COC(=O)NCCCCNS(=O)(=O)c1cc(-c2nc(-c3ccc(Br)c(F)c3)c[nH]2)ccc1Cl` [Example 173] and `COC(=O)NCCCCCNS(=O)(=O)c1cc(-c2nc(-c3ccc(Br)c(F)c3)c[nH]2)ccc1Cl` [Example 175] cannot be ordered by EC50: under 1 µM for the first, under 1 µM for the second.

`CC(C)(C)OC(=O)NCCCCCNS(=O)(=O)c1cc(-c2nc(-c3ccc(Br)c(F)c3)c[nH]2)ccc1Cl` [Example 176] and `CNC(=O)OCCCNS(=O)(=O)c1cc(-c2nc(-c3ccc(Br)c(F)c3)c[nH]2)ccc1Cl` [Example 186] cannot be ordered by EC50: under 1 µM for the first, under 1 µM for the second.

`COC(=O)OCCCNS(=O)(=O)c1cc(-c2nc(-c3ccc(Br)c(F)c3)c[nH]2)ccc1Cl` [Example 177] and `COC(=O)N(C)CCCNS(=O)(=O)c1cc(-c2nc(-c3ccc(Br)c(F)c3)c[nH]2)ccc1Cl` [Example 178] cannot be ordered by EC50: under 1 µM for the first, under 1 µM for the second.

`O=C(NCCCNS(=O)(=O)c1cc(-c2nc(-c3ccc(Br)c(F)c3)c[nH]2)ccc1Cl)OCc1ccccc1` [Example 180] and `O=C(NCCCNS(=O)(=O)c1cc(-c2nc(-c3ccc(Br)c(F)c3)c[nH]2)ccc1Cl)c1ccccc1` [Example 181] cannot be ordered by EC50: under 1 µM for the first, under 1 µM for the second.

`CC(C)(C)OC(=O)NC1CN(S(=O)(=O)c2cc(-c3ncc(-c4ccc(Br)c(F)c4)[nH]3)ccc2Cl)C1` [Example 183] and `COC(=O)NCCCN(C)S(=O)(=O)c1cc(-c2nc(-c3ccc(Br)c(F)c3)c[nH]2)ccc1Cl` [Example 190] cannot be ordered by EC50: under 1 µM for the first, under 1 µM for the second.

`COC(=O)NCC(O)CNS(=O)(=O)c1cc(-c2nc(-c3ccc(Br)c(F)c3)c[nH]2)ccc1Cl` (stereo not shown) [Example 185] and `COC(=O)NC1(C(=O)NCCCNS(=O)(=O)c2cc(-c3nc(-c4ccc(Br)c(F)c4)c[nH]3)ccc2Cl)CC1` [Example 192] cannot be ordered by EC50: under 1 µM for the first, under 1 µM for the second.

`N#CCCCCNS(=O)(=O)c1cc(-c2nc(-c3ccc(Br)c(F)c3)c[nH]2)ccc1Cl` [Example 191] and `O=C(CCCNS(=O)(=O)c1cc(-c2nc(-c3ccc(Br)c(F)c3)c[nH]2)ccc1Cl)Nc1ccccc1` [Example 194] cannot be ordered by EC50: under 1 µM for the first, under 1 µM for the second.

Work on `O=S(=O)(c1cc(-c2nc(-c3ccc(Br)c(F)c3)c[nH]2)ccc1Cl)N1CCN(c2cccnc2)CC1` [Example 195] yielded an EC50 of under 1 µM.

same assay, conditions: Hepatitis B virus, HePAD38, 120 h, read-out: HepAD38 EC50 (μM)

`O=C(NCCCNS(=O)(=O)c1cc(-c2nc(-c3ccc(Br)c(F)c3)c[nH]2)ccc1Cl)Oc1ccccc1` [Example 179] gave an EC50 of under 1 µM.
